Source: patent US20050203013A1, “Methods for inhibiting vascular permeability” (priority 2002, published 2005)

How the values were obtained:
skin vessel permeability [1] = experiment: Miles vascular permeability assay (Example 3); format: in vivo, SCID mice
Description: SCID mice were injected subcutaneously (s.c.) with TNP-470 or HPMA copolymer-TNP-470 (30 mg/Kg TNP-equiv.) for three days, with Y27632 (50 nM s.c.) for 11 days, with angiostatin (200 mg/kg/day s.c.) for five days, or with saline (250 μl s.c.) for 5 days (n=12) prior to performing the Miles assay ([…] et al., 1996; Miles and Miles, 1952; Streit et al., 2000). Briefly, Evan's blue dye (100 μl of a 1% solution in 0.9% NaCl) was injected intravenously (i.v.) into mice. After 10 minutes, 50 μl of human VEGF165 (1 ng/μl), PAF (100 μM), CNF-1 (100 ng), histamine (1.2 μg/ml) or PBS (50 ul) were injected intradermally into the pre-shaved back skin. After 20 minutes, the animals were euthanized and an area of skin that included the blue spot resulting from leakage of the dye was removed. Evan's blue dye was extracted from the skin by incubation with formamide for 5 days at room temperature, and the absorbance of extracted dye was measured at 620 nm using a spectrophotometer. The unpaired Student t test was used for statistical analysis.

[2] = system: U87 glioblastoma tumor blood vessel permeability; experiment: Miles assay on tumor-bearing mice (Example 3), U87; design: species or system SCID mice; settings: mouse, in vivo
Description: Female SCID mice ( 8 weeks, 20 g) were inoculated s.c. with 5×10^6 viable U87 glioblastoma cells or viable A2058 human melanoma cells or BXPC3 pancreas adenocarcinoma cells. Female nu/nu mice were inoculated with MCF-7 or MDA-MB-231 breast carcinoma cells in the mammary fat pad. C57B1/6J were inoculated with LLC. […] blue dye was then injected i.v. and extravasation of dye assessed as above. Also, blood was withdrawn to measure VPF/VEGF levels in plasma and in tumors (n=5 from each group). Tumors (n=5 per group) were dissected, weighed and cut in half. Half of the tumor was placed in formalin and half was analyzed for VPF/VEGF protein by ELISA (see below). Formalin fixed tumors were processed for sectioning and staining with H & E, CD31, smooth muscle actin (SMA) and proliferating cell nuclear antigen (PCNA) according to the manufacturers' instructions.

[3] = system: VEGF induced vessel permeability; experiment: Miles assay (Example 2), VEGF165 challenge; format: in vivo, mice
Description: One of the problems with angiogenesis-dependent diseases is increased vessel permeability (due to high levels of VPF) which results in edema and loss of proteins. A decrease in vessel permeability is beneficial in those diseases. […] Briefly, a dye, Evans Blue (1% in PBS), was injected i.v. to anesthesized mice. After 10 min, human recombinant VEGF165 (50 ng/50 μl) was injected intradermally into the back skin. Leakage of protein-bound dye was detected as blue spots on the underside of the back skin surrounding the injection site. After 20 min mice were euthanized. Then, the skin was excised, left in formamide for 5 days to be extracted and the solution read at 620 nm. Putative angiogenesis inhibitors such as free and conjugated TNP-470 were injected daily 3 days (30 mg/kg/day) prior to the VEGF challenge. The same was repeated on tumor-bearing mice to evaluate the effect of angiogenesis inhibitors on tumor vessel permeability.

[4] = system: Bovine capillary endothelial cells (BCE); experiment: In vitro diffusion of FITC-dextran through endothelial cell monolayer (Transwells); format: cell-based
Description: The effects of the antiangiogenic factor (endostatin) on skin vessel permeability in vivo were tested in an in vitro diffusion model designed to mimic blood vessel permeability. Bovine capillary endothelial cells (BCE) were seeded in collagen coated inserts of “Transwells” and grown to confluence. The antiangiogenic factor was added every 24 hours. Four days later the inserts were washed with BCE culture medium and the following tracers and permeability regulators were added to the inserts. Half of the inserts received 5 mg/ml FITC-labeled dextran 10 kDa and the other half received 5 mg/ml FITC-labeled dextran 70 kDa. In addition, some inserts received 50 ng/ml VEGF165 or 100 nM PAF. Control inserts received BCE culture medium with fluorescent tracers only. The fluorescence in the lower wells was measured after 10, 20, 30, 45 and 60 minutes by transferring the inserts into new wells.
In order to follow the kinetic of the diffusion process, the flow of the tracer was calculated as fluorescent counts per minute (FIGS. 5 and 6). […] In contrast, the flow in control cells was constant and was lower than that observed in PAF and VEGF165-treated cells.

skin vessel permeability [5] = experiment: Duration of exposure: Alzet pump endostatin, skin vessel permeability; format: in vivo, mice (SCID)
Description: In order to test if continuous exposure to the antiangiogenic factor (endostatin) is required to repress blood vessel permeability, mice (SCID) were anesthetized and “Alzet” pumps loaded with the antiangiogenic factor or saline were implanted intraperitoneally. The pumps release 1 μl the antiangiogenic factor per hour. Skin vessel permeability using Evans Blue dye was performed as described above. Saline and the antiangiogenic factor treated mice were examined 2, 3 and 4 days after pump implantation, as described above (FIG. 3). […] In both groups, PAF injection induced higher vessel permeability than saline injection. […] However, in both groups PAF injection induced higher vessel permeability than saline injection. […] Since the tumor vessels are continuously permeabilized and plasma proteins contained within the tumor support its vascularization the anti-permeability effect of the antiangiogenic factor offers a possible mechanism for its anti-tumor activity.

[6] = system: skin capillary permeability; experiment: Evans Blue skin permeability assay, intradermal VEGF, endostatin-treated mice; format: in vivo; settings: FVB/NJ mice, i.p. for 4 days
Description: (§1) The antiangiogenic factor (endostatin) was injected intraperitoneally to FVB/NJ mice for 4 days. Immediately after the last injection, mice were anasthesized and received intravenous injection of 100 μl Evans Blue dye (1% in PBS). Subsequently, different amounts of VEGF165, VEGF121 or saline were injected intradermaly. After 20 minutes, mice were sacrificed and skin flap from the back was removed and photographed. Skin samples from the injection sites were excised and incubated in formamide for 5 days in order to extract the dye and O.D. was measured at 620 nm. […] Quantitative analysis of Evans Blue dye extravasation (FIG. 1) confirmed the lower skin capillary permeability of the antiangiogenic factor-treated mice and indicated the weak permeability-inducing effect of VEGF in these mice.

[7] = system: Bovine capillary endothelial cells (BCE); experiment: Immunostaining of tight junction proteins in BCE, endostatin; format: cell-based
Description: Bovine capillary endothelial cells (BCE) were cultured in the presence of 0.2, 0.5 and 2 μg/ml human endostatin for three days. The cells were fixed and immunostained with anti-β-catenin, occludin, and ZO-1 antibodies (Zymed Laboratories, CA). The staining was developed using FITC-conjugated secondary antibodies and visualized under fluorescent microscopy. Immunostaining for β-catenin marked the cell borders and was more intense when two cells contacted each other. […] There was no difference in β-catenin staining between 0.5 and 2.0 μg/ml endostatin. […] Similar results were obtained with ZO-1 immunostaining. […] This is the first documentation of the effects of endostatin on tight junctions that may explain, in part, the mechanism of its antiangiogenic activities. Similar experiments were performed in which BCE were incubated in the presence and absence of 0.5 μg/ml endostatin for 3 days followed by stimulation with PAF for 20 minutes. The cells were fixed and immunostained with anti-α-catenin, occludin, and ZO-1 antibodies (Zymed Laboratories, CA), as described above.

lung tissue = experiment: Swelling of lung tissue induced by micro-encapsulated VEGF-producing cells; format: in vivo, Mice; settings: VEGF producing cells together with endostatin producing cells, 0.5x10^6 encapsulated cells of each
Description: Dilation of the lung tissue may result in lung dysfunction and development of pulmonary hypertension. Mice injected with micro-encapsulated cells producing VEGF (approximately 0.5×10^6 cells per mouse) developed thickened lung parenchyma 5 days after injection. At a higher magnification we observed generation of several cell layers between the alveoli compared with one layer of cells in mice injected with micro-encapsulated control cells or with micro-encapsulated cells producing endostatin (Endost). […] Moreover, treatment with endostatin reduced the number of cell layers between the alveoli and the lungs of mice that were treated with endostatin appeared similar to control mice. Therefore, endostatin appears to block the swelling of lung tissue and may be used for treatment of pulmonary hypertension.

[8] = system: skin capillary permeability; experiment: Evans Blue skin permeability assay, intradermal PAF, endostatin-treated mice; format: in vivo; settings: Nude mice
Description: as §1
In order to test if the effects of the antiangiogenic factor (endostatin) on vascular permeability is VEGF-specific, we have tested the effects of intradermal injection of platelet-activating factor (PAF) in Nude mice that were previously injected with the antiangiogenic factor and in control mice, as described above. […] Quantitative analysis of Evans Blue dye extravasation (FIG. 2) confirmed the lower skin capillary permeability of the antiangiogenic factor-treated mice compared with control and the lack of PAF-induced hyperpermeability in these mice. […]

[9] = system: histamine-induced local edema; experiment: Histamine-induced wheal and flare test; format: in vivo; settings: humans receiving the factor
Description: Antiangiogenic treatment has entered into clinical trials recently. Molecules that are tested in phase 1 and 2 clinical trials include endostatin, angiostatin, TNP-470, thalidomide, anti-VEGF antibodies, PTK787, SU-5416, SU-6668 and others. […] Mice that received endostatin for several days had lower diffusion of Evans blue from the skin capillaries in response to intradermal VEGF and PAF injection compared with normal mice. The existing test of histamine-induced wheal and flare in skin can be used in order to test bioactivity of endostatin and other antiangiogenic factors. Intradermal injection of histamine leads to the formation of local adema ([…]) due to blood vessel hyperpermiability. […] This test will serve as an early surrogate marker for the bioactivity of endostatin and other antiangiogenic factors and help to determine the treatment's efficiency in individual patients.

angiostatin was tested, and the “decrease of PAF-induced permeability” value (skin vessel permeability [1]; PAF intradermal) was 37%, the “inhibition of Evan's blue dye extravasation from VPF/VEGF injection sites” value (skin vessel permeability [1]; VPF/VEGF intradermal) was 40% and the “decrease of histamine-induced permeability” value (skin vessel permeability [1]; histamine intradermal) was 51%. For the same compound, the “Evan's blue extravasation into U87 glioblastomas” value [2] was “did not inhibit”.
`O=C1CCC(N2C(=O)c3ccccc3C2=O)C(=O)N1` (stereo not shown) [Thalidomide] was tested, and the “effect on VPF/VEGF-induced vessel permeability” value (skin vessel permeability [1]; VPF/VEGF intradermal) was “no significant effect” and the “effect on VEGF induced vessel permeability” value [3] was “no effect”.
In the case of `C[C@@H](N)[C@H]1CC[C@H](C(=O)Nc2ccncc2)CC1` [Y27632], the “CNF-1-induced Evan's blue-albumin extravasation” value (skin vessel permeability [1]; CNF-1 intradermal) is reported as “inhibited” and the “effect on VPF/VEGF-induced vessel permeability” value (skin vessel permeability [1]; VPF/VEGF intradermal) is reported as “inhibited”.
In the case of endostatin, the “flow of the tracer (fluorescent counts per minute)” value ([4]; 10 kDa and 70 kDa dextrans) is reported as “significant reduced flow”, the “sum of fluorescent count over 60 minutes” value ([4]; BCE monolayer pre-treated 4 days, FITC-dextran 10 kDa and 70 kDa, vs control, VEGF165- and PAF-treated cells) is reported as “significantly lower fluorescent counts” and the “duration of treatment required to reduce skin vessel permeability” value (skin vessel permeability [5]; SCID mice, intraperitoneal Alzet pump) is reported as “at least 3 days”. The “blood vessel permeability in response to PAF injection vs saline treated mice” value (skin vessel permeability [5]; day two after pump implantation) was “no significant difference”, the “VEGF-induced hyperpermeability (Evans Blue extravasation)” value ([6]; intradermal VEGF165/VEGF121) was “minor induction of hyperpermeability” and the “Evans Blue dye leakage from skin capillaries” value ([6]; vs control mice) was “overall lower dye leakage than the control”. For the same compound, the “cell boundary β-catenin staining” value ([7]; 0.2 μg/ml, three days) was “intensified”, the “PAF reduction of staining intensity of anti-α-catenin, occludin and ZO-1” value ([7]; 0.5 μg/ml for 3 days, then PAF for 20 minutes) was “not in endostatin-treated cells” and the “cell boundary β-catenin staining” value ([7]; 0.5 μg/ml, three days) was “further intensified”. The ZO-1 immunostaining ([7]; 0.2-2.0 μg/ml, three days) was “Cells boundaries were only visible”, the occludin immunostaining ([7]; 0.5 and 2.0 μg/ml, three days) was “cell boundaries were observed” and the “lung tissue appearance (cell layers, extracellular matrix)” value (lung tissue) was “fewer cell layers and no accumulation of extracellular matrix”. For the same compound, the PAF-induced vascular permeability [8] was “repressed” and the “zone of edema after intradermal histamine” value [9] was “reduced zone of edema”.
